Experimental data reported in US9775351B2, “Ternary fungicidal and pesticidal mixtures” (BAYER CROPSCIENCE AG, priority 2012, dated 2017).

Test system: Rhizoctonia solani
Assay: Rhizoctonia test (cotton)/seed treatment
Type: in vivo
Conditions: greenhouse, 7 days at 20° C
Experimental: Rhizoctonia Test (Cotton)/Seed Treatment
The test is performed under greenhouse conditions.
Commercially available disease control agents, active compounds solved in N-methyl-2-pyrrolidon, or combinations thereof were diluted with water to the desired dosages. Cotton seeds were treated with this preparations and sown in 6*6 cm pots containing 4 cm of a 1:1 mix of steamed field soil and sand, mixed with a perlite-culture of Rhizoctonia solani.
Pots were incubated in the greenhouse for 7 days at 20° C.
Assessment consisted of counting of emerged seedlings and diseased plants. 0% means an efficacy which corresponds to that of the untreated control, while an efficacy of 100% means that all seedlings have emerged and are healthy.

`CC1CC(C)(C)c2cccc(NC(=O)c3cn(C)nc3C(F)F)c21` (stereo not drawn) [(I-1), 3-(difluoromethyl)-1-methyl-N-(1,1,3-trimethyl-2,3-dihydro-1H-inden-4-yl)-1H-pyrazole-4-carboxamide] showed an Efficacy in % (application rate 10 g a.i./dt) of 41%.
With `CN/C(=N\[N+](=O)[O-])NCc1cnc(Cl)s1` [clothianidin] the Efficacy in % (application rate 12 g a.i./dt) was 24%.
In the case of `COCC(=O)N(c1c(C)cccc1C)C(C)C(=O)OC` (stereo not drawn) [metalaxyl], the Efficacy in % (application rate 1 g a.i./dt) is reported as 12%.
